Experiment [1] relates to adjuvant-induced arthritis in rats. Description: Established Adjuvant-Induced Arthritis in Rats. The experiment is classed as in vivo, Charles River Lewis male rats. The settings on record: for ED50: Rattus norvegicus, read-out: A. A. ED50%.
Experiment [2] concerns phenylquinone-induced writhing in mice. Kind of experiment: Phenylquinone Writhing Test. The experiment is classed as in vivo, female white mice. The settings on record: Mus musculus, 0.5 h, oral, at 1/2 hour. The protocol:
A standard procedure for detecting and comparing the analgesic activity of compounds in this series for which there is good correlation with human efficacy is the standard phenylquinone writhing test modified from Siegmund, et al., Proc. Soc. Exp. Biol. Med. 95, 729 (1957). A test compound suspended in 1% methylcellulose was given orally to fasted (17-21 hours) female white mice, 5-20 animals per double blind test. Aqueous (0.01% phenyl-p-benzoquinone) phenylquinone was injected intraperitoneally at 24 minutes later using 0.20 ml per mouse. […] The effective analgesic dose for 50% of the mice (ED50) was calculated by the moving average method of Thompson, W. R., Bact. Rev. 11, 115-145 (1947); also time of peak action was determined for many of the compounds.
On the technique in general: An intraperitoneal irritant provokes the stretching counted in writhing tests.

[3] abbreviates: oral, 7 daily doses, established adjuvant arthritis rats.
[4] abbreviates: oral, 7 daily doses, established adjuvant arthritis rats, determined as % paw volume reduction from control.

SMILES strings stand for the structures. Like-named read-outs stand apart in the source and are kept apart here. A value given as a limit tells only on which side of the number the result lay.

As to `CC(=O)Oc1ccccc1C(=O)O` [Aspirin, reference compound], the 50% effective dose (ED50) in experiment [1] (po) was determined as 305 mg/kg. Regarding `FC(F)C(F)(F)Sc1nc(-c2cccs2)c(-c2cccs2)[nH]1` [Example 1, 2-[(1,1,2,2-Tetrafluoroethyl)thio]-4,5-bis-(2-thienyl)-1H-imidazole], in experiment [1] (setting [3]), the “% paw volume reduction from control at 50 mg/kg” value is listed as 32%. Also, in experiment [2], the 50% effect level (ED50) was put at a dose of 4.6 mg/kg. Regarding `Fc1ccc(-c2nc(SC(F)(F)C(F)F)[nH]c2-c2cccs2)cc1` [Example 2, 4-(4-Fluorophenyl)-2-(1,1,2,2-tetrafluoroethylthio)-5-(2-thienyl)-1H-imidazole], the ED50 in experiment [1] (setting [4]) is 1.3 mg/kg.

Take `O=S(=O)(c1nc(-c2ccc(F)cc2)c(-c2cccs2)[nH]1)C(F)(F)C(F)F` [Example 3, 4-(4-Fluorophenyl)-2-(1,1,2,2-tetrafluoroethylsulfonyl)-5-(2-thienyl)-1H-imidazole]: the ED50 in experiment [1] (setting [4]) was 0.1 mg/kg; in experiment [2], 2.1 mg/kg.

Take `FC(F)C(F)(F)Sc1nc(-c2ccc(Cl)cc2)c(-c2cccs2)[nH]1` [Example 4, 4-(4-Chlorophenyl)-2-(1,1,2,2-tetrafluoroethylthio)-5-(2-thienyl)-1H-imidazole]: in experiment [1] (setting [4]), the ED50 is 12 mg/kg. Consider `O=S(=O)(c1nc(-c2cccs2)c(-c2cccs2)[nH]1)C(F)(F)C(F)F` [Example 5, 2-(1,1,2,2-Tetrafluoroethylsulfonyl)-4,5-bis-(2-thienyl)-1H-imidazole], for which the ED50 in experiment [1] (setting [4]) is 2.2 mg/kg; in experiment [2] it was under 130 mg/kg. For `FC(F)C(F)(F)Sc1nc(-c2ccc(Cl)c(Cl)c2)c(-c2cccs2)[nH]1` [Example 6, 4-(3,4-Dichlorophenyl)-2-(1,1,2,2-tetrafluoroethylthio)-5-(2-thienyl)-1H-imidazole], in experiment [1] (setting [4]), the ED50 was 50 mg/kg. Regarding `COc1ccc(-c2nc(SC(F)(F)C(F)F)[nH]c2-c2cccs2)cc1` [Example 8, 4-(4-Methoxyphenyl)-2-(1,1,2,2-tetrafluoroethylthio)-5-(2-thienyl)-1H-imidazole], the ED50 in experiment [1] (setting [4]) came to 30 mg/kg; in experiment [2] it was 45 mg/kg. As for `COc1ccc(-c2nc(S(=O)(=O)C(F)(F)C(F)F)[nH]c2-c2cccs2)cc1` [Example 9, 4-(4-Methoxyphenyl)-2-(1,1,2,2-tetrafluoroethylsulfonyl)-5-(2-thienyl)-1H-imidazole], the ED50 was found to be 5 mg/kg in experiment [1] (setting [4]) and 1.67 mg/kg in experiment [2]. On to `FC(F)C(F)(F)Sc1nc(-c2ccco2)c(-c2ccco2)[nH]1` [Example 10, 4,5-bis-(2-Furyl)-2-(1,1,2,2-tetrafluoroethylthio)-1H-imidazole], for which, in experiment [1] (setting [3]), the “% paw volume reduction from control at 50 mg/kg” value is 34%.

As to `FC(F)C(F)(F)Sc1nc(-c2ccccc2)c(-c2cccnc2)[nH]1` [Example 11, 4-Phenyl-5-(3-pyridyl)-2-(1,1,2,2-tetrafluoroethylthio)-1H-imidazole], the 50% effective dose (ED50) in experiment [1] (setting [4]) was under 25 mg/kg.

Turning to `CC(C)Cc1ccc(C(C)C(=O)O)cc1` (stereo not shown) [Ibuprofen, reference compound], the 50% effective dose (ED50) in experiment [1] (setting [4]) is 100 mg/kg. Consider `COc1ccc2c(c1)c(CC(=O)O)c(C)n2C(=O)c1ccc(Cl)cc1` [Indomethacin, reference compound], for which the ED50 in experiment [1] (po) amounted to 0.3 mg/kg. As to `CCCCC1C(=O)N(c2ccccc2)N(c2ccccc2)C1=O` [Phenylbutazone, reference compound], the ED50 in experiment [1] (setting [4]) was found to be 10 mg/kg.

As usually defined, the ED50 is the midpoint of the dose-response relation.

Values taken from patent publication US4159338A, “Antiinflammatory-4,5-dicyclic-2-(substituted thio)-imidazoles and their corresponding sulfoxides and sulfones” (E. I. Du Pont de Nemours and Company, priority 1978, dated 1979).
